Patent publication US20250145585A1, “HETEROCYCLIC INHIBITORS OF IGF-1R FOR TREATMENT OF DISEASE” (HORIZON THERAPEUTICS IRELAND DAC, priority 2023, published 2025)
pIC50: −log10 of the molar value.

target: T1, IGF-1R (Homo sapiens, UniProt P08069); test: Example B-2: IGF-1R Assay (PathHunter cell lines, EC80 agonist challenge, chemiluminescent detection); assay type: cell-based; settings: PathHunter cells, compound 60 minutes at 37° C., EC80 agonist 3 hours; read-out: IC50, Biological Activity against IGF-1R (Table B2)
T1 construct: expressed in transfected cells
T1 sequence (P08069 31-1367): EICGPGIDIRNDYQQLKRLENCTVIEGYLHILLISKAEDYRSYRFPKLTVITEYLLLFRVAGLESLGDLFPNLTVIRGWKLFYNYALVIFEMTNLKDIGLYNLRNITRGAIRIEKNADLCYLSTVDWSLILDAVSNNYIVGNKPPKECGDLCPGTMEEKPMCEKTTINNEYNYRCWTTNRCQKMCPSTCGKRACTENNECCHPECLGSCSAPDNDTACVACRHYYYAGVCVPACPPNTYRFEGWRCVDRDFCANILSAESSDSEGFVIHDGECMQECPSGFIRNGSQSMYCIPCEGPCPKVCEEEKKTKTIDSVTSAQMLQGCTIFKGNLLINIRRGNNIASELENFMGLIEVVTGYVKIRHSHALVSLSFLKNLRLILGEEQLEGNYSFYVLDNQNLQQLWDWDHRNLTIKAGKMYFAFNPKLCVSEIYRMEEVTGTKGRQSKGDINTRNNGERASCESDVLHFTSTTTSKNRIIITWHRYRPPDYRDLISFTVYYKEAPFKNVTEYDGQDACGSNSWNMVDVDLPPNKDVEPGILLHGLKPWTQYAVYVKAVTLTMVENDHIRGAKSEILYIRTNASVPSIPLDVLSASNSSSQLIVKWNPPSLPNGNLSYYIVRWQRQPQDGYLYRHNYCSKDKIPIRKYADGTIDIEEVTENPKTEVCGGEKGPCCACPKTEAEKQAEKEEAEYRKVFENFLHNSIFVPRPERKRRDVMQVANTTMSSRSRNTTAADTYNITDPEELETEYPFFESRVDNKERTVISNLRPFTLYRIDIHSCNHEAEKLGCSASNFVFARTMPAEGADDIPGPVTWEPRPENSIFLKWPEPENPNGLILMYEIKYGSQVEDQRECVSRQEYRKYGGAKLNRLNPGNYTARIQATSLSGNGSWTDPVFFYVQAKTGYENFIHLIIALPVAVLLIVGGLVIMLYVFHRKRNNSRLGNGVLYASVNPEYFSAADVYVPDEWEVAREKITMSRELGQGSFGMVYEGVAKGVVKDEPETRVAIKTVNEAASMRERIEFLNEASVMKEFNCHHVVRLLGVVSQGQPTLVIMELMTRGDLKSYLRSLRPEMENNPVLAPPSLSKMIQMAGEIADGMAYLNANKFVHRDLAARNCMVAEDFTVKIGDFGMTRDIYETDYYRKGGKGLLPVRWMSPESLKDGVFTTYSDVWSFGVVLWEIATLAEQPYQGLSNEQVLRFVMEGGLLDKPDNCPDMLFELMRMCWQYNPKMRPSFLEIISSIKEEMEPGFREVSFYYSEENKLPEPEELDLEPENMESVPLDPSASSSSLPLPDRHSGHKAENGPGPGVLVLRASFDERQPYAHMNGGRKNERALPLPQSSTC
How it was run: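 PathHunter cells were pre-incubated with compound for 60 min at 37° C (1% vehicle), then challenged with EC80 agonist for 3 h at room temperature. Chemiluminescent detection after 1 h gave % inhibition relative to EC80 and vehicle controls, from which IC50 was derived.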

pIC50 | Structure (SMILES)
≥ 6.30 | C[C@@H](CC#N)Nc1cc(CN2C(=O)N(c3ccc4c(c3)N(S(C)(=O)=O)CC43CC3)C(=O)C2(C)C)ccn1 [Compound 230, (S)-3-((4-((5,5-dimethyl-3-(1′-(methylsulfonyl)spiro[cyclopropane-1,3′-indolin]-6′-yl)-2,4-dioxoimidazolidin-1-yl)methyl)pyridin-2-yl)amino)butanenitrile]
5.00 to 5.70 | C[C@@H](Nc1cc(CN2C(=O)N(c3ccc(S(=O)(=O)C(F)(F)F)cc3)C(=O)C2(C)C)ccn1)[C@H]1CCCO1 [Compound 342, 5,5-dimethyl-1-((2-(((R)-1-((R)-tetrahydrofuran-2-yl)ethyl)amino)pyridin-4-yl)methyl)-3-(4-((trifluoromethyl)sulfonyl)phenyl) imidazolidine-2,4-dione]
5.70 to 6.30 | CC(CF)Nc1cc(CN2C(=O)N(c3ccc(S(=O)(=O)C(F)(F)F)cc3)C(=O)C2(C)C)ccn1 (centres unmarked) [Compound 336, 1-((2-((1-fluoropropan-2-yl)amino)pyridin-4-yl)methyl)-5,5-dimethyl-3-(4-((trifluoromethyl)sulfonyl)phenyl) imidazolidine-2,4-dione]
≥ 6.30 | C[C@H](CC#N)Nc1cc(CN2C(=O)N(c3ccc(C4(C(F)(F)F)CC4)cc3)C(=O)C2(C)C)ccn1 [Compound 147, (R)-3-((4-((5,5-dimethyl-2,4-dioxo-3-(4-(1-(trifluoromethyl)cyclopropyl)phenyl)imidazolidin-1-yl)methyl)pyridin-2-yl)amino)butanenitrile]
5.70 to 6.30 | CC(C)OC[C@H](C)Nc1cc(CN2C(=O)N(c3ccc(C4(C(F)(F)F)CC4)cc3)C(=O)C2(C)C)ccn1 [Compound 158, (S)-1-((2-((1-isopropoxypropan-2-yl)amino)pyridin-4-yl)methyl)-5,5-dimethyl-3-(4-(1-(trifluoromethyl)cyclopropyl)phenyl) imidazolidine-2,4-dione]
≥ 6.30 | C[C@@H](Nc1cc(CN2C(=O)N(c3ccc4c(c3)N(S(C)(=O)=O)CC43CCC3)C(=O)C2(C)C)ccn1)c1cccnc1 [Compound 242, (R)-5,5-dimethyl-3-(1′-(methylsulfonyl)spiro[cyclobutane-1,3′-indolin]-6′-yl)-1-((2-((1-(pyridin-3-yl)ethyl)amino)pyridin-4-yl)methyl)imidazolidine-2,4-dione]
≥ 6.30 | COC[C@@H](C)Nc1cc(CN2C(=O)N(c3cc(C(C)(C)C)nn3C)C(=O)C2(C)C)ccn1 [Compound 259, (R)-3-(3-(tert-butyl)-1-methyl-1H-pyrazol-5-yl)-1-((2-((1-methoxypropan-2-yl)amino)pyridin-4-yl)methyl)-5,5-dimethylimidazolidine-2,4-dione]
≥ 6.30 | CC(Nc1cc(CN2C(=O)N(c3ccc4c(c3)N(S(C)(=O)=O)CC43CCC3)C(=O)C2(C)C)ccn1)C1CCOC1 (centres unmarked) [Compound 225, 5,5-dimethyl-3-(1′-(methylsulfonyl)spiro[cyclobutane-1,3′-indolin]-6′-yl)-1-((2-((1-(tetrahydrofuran-3-yl)ethyl)amino)pyridin-4-yl)methyl)imidazolidine-2,4-dione]
≥ 6.30 | CC1(C)C(=O)N(c2ccc3c(c2)N(S(C)(=O)=O)CC32CC2(C)C)C(=O)N1Cc1ccnc(N[C@H]2[C@@H]3COC[C@@H]32)c1 (stereo partly drawn) [Compound 164, 1-((2-(((1R,5S,6r)-3-oxabicyclo[3.1.0]hexan-6-yl)amino)pyridin-4-yl)methyl)-3-(2,2-dimethyl-1′-(methylsulfonyl)spiro[cyclopropane-1,3′-indolin]-6′-yl)-5,5-dimethylimidazolidine-2,4-dione]
≥ 6.30 | COCCC(C)Nc1cc(CN2C(=O)N(c3ccc4c(c3)N(S(C)(=O)=O)CC4(C)C)C(=O)C2(C)C)ccn1 (centres unmarked) [Compound 219, 3-(3,3-dimethyl-1-(methylsulfonyl)indolin-6-yl)-1-((2-((4-methoxybutan-2-yl)amino)pyridin-4-yl)methyl)-5,5-dimethylimidazolidine-2,4-dione]
≥ 6.30 | CC1(Nc2cc(CN3C(=O)N(c4ccc(C(C)(C)C#N)cc4)C(=O)C3(C)C)ccn2)CC1 [Compound 155, 2-(4-(4,4-dimethyl-3-((2-((1-methylcyclopropyl)amino)pyridin-4-yl)methyl)-2,5-dioxoimidazolidin-1-yl)phenyl)-2-methylpropanenitrile]
≥ 6.30 | CC1(C)C(=O)N(c2ccc3c(c2)N(S(C)(=O)=O)CC32CCC2)C(=O)N1Cc1ccnc(NCC2CC2(F)F)c1 (centres unmarked) [Compound 232, 1-((2-(((2,2-difluorocyclopropyl)methyl)amino)pyridin-4-yl)methyl)-5,5-dimethyl-3-(1′-(methylsulfonyl)spiro[cyclobutane-1,3′-indolin]-6′-yl)imidazolidine-2,4-dione]
5.70 to 6.30 | CC(C)Nc1cc(CN2C(=O)N(c3ccc(C(C)(C)C#N)nc3)C(=O)C2(C)C)ccn1 [Compound 143, 2-(5-(3-((2-(isopropylamino)pyridin-4-yl)methyl)-4,4-dimethyl-2,5-dioxoimidazolidin-1-yl)pyridin-2-yl)-2-methylpropanenitrile]

The remaining lines, values behind:

Structure (SMILES) | pIC50
CC1(C)C(=O)N(c2ccc(C3(C(F)(F)F)CC3)cc2)C(=O)N1Cc1ccnc2c1CS(=O)(=O)N2 [Compound 44, 1-((2,2-dioxido-1,3-dihydroisothiazolo[3,4-b]pyridin-4-yl)methyl)-5,5-dimethyl-3-(4-(1-(trifluoromethyl)cyclopropyl)phenyl) imidazolidine-2,4-dione] | < 5.00
CC1(C)C(=O)N(c2ccc(OC(F)(F)F)c(N3CCOCC3)c2)C(=O)N1Cc1ccnc2c1CC(=O)N2 [Compound 74, 5,5-dimethyl-3-(3-morpholino-4-(trifluoromethoxy)phenyl)-1-((2-oxo-2,3-dihydro-1H-pyrrolo[2,3-b]pyridin-4-yl)methyl)imidazolidine-2,4-dione] | ≥ 6.30
CC1(C)COc2cc(N3C(=O)N(Cc4ccnc5c4CC(=O)N5)C(C)(C)C3=O)c(Br)cc21 [Compound 53, 3-(5-bromo-3,3-dimethyl-2,3-dihydrobenzofuran-6-yl)-5,5-dimethyl-1-((2-oxo-2,3-dihydro-1H-pyrrolo[2,3-b]pyridin-4-yl)methyl)imidazolidine-2,4-dione] | 5.70 to 6.30
CC1(C)C(=O)N(c2ccc3c(c2)N(S(C)(=O)=O)CC32CCC2)C(=O)N1Cc1ccnc(N[C@H]2CCOC2)c1 [Compound 204, (S)-5,5-dimethyl-3-(1′-(methylsulfonyl)spiro[cyclobutane-1,3′-indolin]-6′-yl)-1-((2-((tetrahydrofuran-3-yl)amino)pyridin-4-yl)methyl)imidazolidine-2,4-dione] | ≥ 6.30
CC1(C)C(=O)N(c2ccc3c(c2)OCC32CCC2)C(=O)N1Cc1ccnc2c1CC(=O)N2 [Compound 51, 5,5-dimethyl-1-((2-oxo-2,3-dihydro-1H-pyrrolo[2,3-b]pyridin-4-yl)methyl)-3-(2H-spiro[benzofuran-3,1′-cyclobutan]-6-yl)imidazolidine-2,4-dione] | ≥ 6.30
CC1(C)C(=O)N(c2ccc3c(c2)N(C(=O)C2CC2)CC32CCC2)C(=O)N1Cc1ccnc(N[C@H]2CCOC2)c1 [Compound 236, (S)-3-(1′-(cyclopropanecarbonyl)spiro [cyclobutane-1,3′-indolin]-6′-yl)-5,5-dimethyl-1-((2-((tetrahydrofuran-3-yl)amino)pyridin-4-yl)methyl)imidazolidine-2,4-dione] | ≥ 6.30
CC(C)c1ccc(N2C(=O)N(Cc3ccnc4c3CC(=O)N4)C(C)(C)C2=O)cc1C#N [Compound 68, 5-(4,4-dimethyl-2,5-dioxo-3-((2-oxo-2,3-dihydro-1H-pyrrolo[2,3-b]pyridin-4-yl)methyl)imidazolidin-1-yl)-2-isopropylbenzonitrile] | 5.70 to 6.30
CC1(C)C(=O)N(c2ccc(C3(C(F)(F)F)CC3)cc2)C(=O)N1Cc1ccnc(N[C@H]2[C@@H]3COC[C@@H]32)c1 [Compound 148, 1-((2-(((1R,5S,6r)-3-oxabicyclo[3.1.0]hexan-6-yl)amino)pyridin-4-yl)methyl)-5,5-dimethyl-3-(4-(1-(trifluoromethyl)cyclopropyl)phenyl) imidazolidine-2,4-dione] | ≥ 6.30
CC1(C)C(=O)N(c2ccc(OC(F)(F)F)c(Cl)c2)C(=O)N1Cc1ccnc2c1CC(=O)N2 [Compound 287, 3-(3-chloro-4-(trifluoromethoxy)phenyl)-5,5-dimethyl-1-((2-oxo-2,3-dihydro-1H-pyrrolo[2,3-b]pyridin-4-yl)methyl)imidazolidine-2,4-dione] | 5.00 to 5.70
CC1(C)C(=O)N(c2ccc(C(F)(F)F)c(C#N)c2)C(=O)N1Cc1ccnc2c1CC(=O)N2 [Compound 66, 5-(4,4-dimethyl-2,5-dioxo-3-((2-oxo-2,3-dihydro-1H-pyrrolo[2,3-b]pyridin-4-yl)methyl)imidazolidin-1-yl)-2-(trifluoromethyl)benzonitrile] | < 5.00
CC1(C)C(=O)N(c2ccc(C3(C(F)(F)F)CC3)cc2)C(=O)N1Cc1ccnc2c1OCC1(CC1)N2 [Compound 58, 1-((2′H,4′H-spiro[cyclopropane-1,3′-pyrido[3,2-b][1,4]oxazin]-8′-yl)methyl)-5,5-dimethyl-3-(4-(1-(trifluoromethyl)cyclopropyl)phenyl) imidazolidine-2,4-dione] | ≥ 6.30
CC1(C)C(=O)N(c2ccc(C3(C#N)CC3)c(F)c2)C(=O)N1Cc1ccnc2c1CC(=O)N2 [Compound 71, 1-(4-(4,4-dimethyl-2,5-dioxo-3-((2-oxo-2,3-dihydro-1H-pyrrolo[2,3-b]pyridin-4-yl)methyl)imidazolidin-1-yl)-2-fluorophenyl)cyclopropane-1-carbonitrile] | 5.70 to 6.30
CC(C)(C#N)c1ccc(N2C(=O)N(Cc3ccnc4c3CC(=O)N4)C(C)(C)C2=O)cc1 [Compound 29, 2-(4-(4,4-dimethyl-2,5-dioxo-3-((2-oxo-2,3-dihydro-1H-pyrrolo[2,3-b]pyridin-4-yl)methyl)imidazolidin-1-yl)phenyl)-2-methylpropanenitrile] | ≥ 6.30
